Results reported in US20040224844A1, “Use of hydroxyaromatic compounds as safeners” (Bayer CropScience GmbH, priority 2003, published 2004).

How the values were obtained:
Assay type in all cases: in vivo
[1] = system: Zea mays (corn), cv. 'Lorenzo'; test: Pre-emergence application of herbicide and safener by the tank mix method: crop damage
Procedure: (§1) Seeds of various crop plants and weed species were sown in sandy loam soil in plastic pots of a diameter of 13 cm and covered with a layer of sandy loam of a thickness of about 1 cm. Herbicides and safeners in the form of liquid (for example emulsion concentrates) or dry (for example water-dispersible powders) formulations were diluted with deionized water to the required concentration and applied to the surface of the soil with a spray bar using a water application rate of 300 liters per hectare. In the experiment shown below, the safeners were used as 20 percent strength water-dispersible powders and the herbicide isoxaflutole was used as an aqueous suspension concentrate (see table 1.1.1).
(§2) The pots were placed in a greenhouse under favorable growth conditions. Visual scoring of the herbicidal action was carried out four weeks after the herbicide application. Evaluation was carried out on a percentage basis by comparison with untreated control plants (0%=no noticeable effect compared with the untreated plant, 100%=treated plant dies).

Chenopodium album = test: Pre-emergence application of herbicide and safener by the tank mix method: herbicidal action; conditions: four weeks
Procedure: as §1, §2

Setaria viridis [2] = test: as above; conditions: four weeks
Procedure: as §1, §2

[3] = system: Zea mays (corn), cv. 'Lorenzo'; test: Post-emergence application of herbicide and safener by the tank mix method: crop damage; conditions: for Safener action as % damage reduction in crop plants: ZEAMA
From the text: (§3) Seeds of various crop plants and weed species were sown in sandy loam soil in round plastic pots of a diameter of 13 cm and covered with a layer of sandy loam of a thickness of about 1 cm. The pots were placed in a greenhouse under favorable growth conditions for a period of about two to three weeks, allowing the plants to reach a growth stage of 2 to 4 leaves. The herbicides in the form of liquid (for example emulsion concentrates) or dry (for example water-dispersible powders) formulations were mixed with a standard additive (based on rapeseed oil methyl ester), diluted with deionized water to the required concentrations and applied to the green parts of the plants and the uncovered part of the soil surface with a spray bar using a water application rate of 300 liters per hectare. In the experiment shown below, safener and the herbicide foramsulfuron were in each case used as 20 percent strength water-dispersible powder (results see table 1.2.1).
as §2

Amaranthus retroflexus = test: Post-emergence application of herbicide and safener by the tank mix method: herbicidal action; conditions: four weeks
From the text: as §3, §2

Setaria viridis [4] = test: as above; conditions: four weeks
From the text: as §3, §2

[5] = system: Glycine max (soybean), cv. 'Lambert'; test: Pre-emergence application of herbicide after seed dressing with safener; conditions: for Safener action as % damage reduction in crop plants: GLXMA
Procedure: (§4) The number of crop plant seeds required for each application rate of safener was calculated. Sufficient seeds were weighed out into glass bottles having a screw-on lid. The volume of the glass bottles was approximately twice that of the seeds weighed out.
(§5) The safeners were formulated as 20 percent strength water-dispersible powders. These formulations were weighed out to give the required application rates (g of a.i./kg of seed). The samples were added to the seeds in the glass containers, and sufficient water to form a suitable seed dressing was then added. The glass bottles were closed and then mounted in an overhead shaker (which turns the bottles at moderate speed for a period of up to one hour) so that the seeds were uniformly covered with the seed dressing. The bottles were opened and the seeds were ready for use in pre-emergence or post-emergence experiments, as described below.
(§6) The seeds which had been treated with safeners and untreated seeds as controls were sown in sandy loam soil in round plastic pots of a diameter of 13 cm and covered with a layer of sandy loam of a thickness of about 1 cm. The herbicides in the form of liquid (for example emulsion concentrates) or dry (for example water-dispersible powders) formulations were diluted with deionized water to the required concentrations and applied to the surface of the soil with a spray bar using a water application rate of 300 liters per hectare. In the two experiments shown below (results see tables 2.2.1 and 2.2.2), the herbicide isoxaflutole was used as an aqueous suspension concentrate.
as §2

[6] = system: Zea mays (corn), cv. 'Lorenzo'; test: as above; conditions: for Safener action as % damage reduction in crop plants: ZEAMA
Procedure: as §4, §5, §6, §2

[7] = system: Zea mays (corn), cv. 'Lorenzo'; test: Post-emergence application of herbicide after seed dressing with safener; conditions: for Safener action as % damage reduction in crop plants: ZEAMA
Procedure: as §4, §5
as §3, with “The seeds treated with safener” for “Seeds of various crop plants”, “untreated seeds” for “weed species”, “2.3.1).” for “1.2.1).”
The pots were placed in a greenhouse under favorable growth conditions. Visual scoring of the herbicidal action was carried out four weeks after the herbicide application. Evaluation was carried out on a percentage base by comparison with untreated control plants (0%=no noticeable effect compared with the untreated plant, 100%=treated plant dies).

[8] = safener 250 g of a.i./ha + herbicide H1 (isoxaflutole) 100 g of a.i./ha, pre-emergence tank mix
[9] = safener 250 g of a.i./ha + herbicide H2 (foramsulfuron) 40 g of a.i./ha, post-emergence tank mix
[10] = seed dressing with safener 1 g of a.i./kg of seed, herbicide H1 (isoxaflutole) 100 g of a.i./ha pre-emergence
[11] = seed dressing with safener 1 g of a.i./kg of seed, herbicide H2 (foramsulfuron) 40 g of a.i./ha post-emergence
[12] = seed dressing with safener 1 g of a.i./kg of seed, herbicide H1 (isoxaflutole) 100 g of a.i./ha pre-emergence, four weeks
[13] = herbicide H1 (isoxaflutole) 100 g of a.i./ha alone, no safener, pre-emergence
[14] = herbicide H2 (foramsulfuron) 40 g of a.i./ha alone, no safener, post-emergence

| SMILES | Safener action as % damage reduction in ZEAMA [1, 8] | Herbicidal action in CHEAL (in %) (Chenopodium album; [8]) | Herbicidal action in SETVI (in %) (Setaria viridis [2]; [8]) | Safener action as % damage reduction in crop plants [3, 9] | Herbicidal action as % damage in AMARE (Amaranthus retroflexus; [9]) | Herbicidal action as % damage in SETVI (Setaria viridis [4]; [9]) | Safener action as % damage reduction in crop plants [5, 10] | % damage in GLXMA ([5]; in vivo) | Safener action as % damage reduction in crop plants [6, 10] | % damage in ZEAMA ([6]; in vivo) | Safener action as % damage reduction in crop plants [7, 11] | % damage in ZEAMA ([7]; in vivo) | further results |
| --- | --- | --- | --- | --- | --- | --- | --- | --- | --- | --- | --- | --- | --- |
| O=C(O)c1cc(O)cc(O)c1 [Comp. 1050, 3,5-dihydroxybenzoic acid] | 88% | 97% | 96% | 69% | 90% | 97% | 64% | 28% | 75% | 5% | 86% | 5% |  |
| COc1cc(C(=O)O)cc(OC)c1O [Comp. 1272, 3,5-dimethoxy-4-hydroxybenzoic acid] | 52% | 94% | 98% | 53% | 92% | 95% | 55% |  | 50% |  | 79% |  | % damage in ZEAMA ([1]; safener 250 g of a.i./ha + herbicide H1 (isoxaflutole) 100 g of a.i./ha, pre-emergence tank mix, visual scoring four weeks after application): 12%; % damage in ZEAMA ([3]; safener 250 g of a.i./ha + herbicide H2 (foramsulfuron) 40 g of a.i./ha, post-emergence tank mix, visual scoring four weeks after application): 15%; % damage in GLXMA [5, 12]: 35%; % damage in ZEAMA [6, 12]: 10%; % damage in ZEAMA ([7]; seed dressing with safener 1 g of a.i./kg of seed, herbicide H2 (foramsulfuron) 40 g of a.i./ha post-emergence, four weeks): 7.5% |
| CS(=O)(=O)c1cc(C(F)(F)F)ccc1C(=O)c1cnoc1C1CC1 [Herbicide H1, isoxaflutole, reference compound] |  |  |  |  |  |  |  | 78% |  | 20% |  |  | % damage in ZEAMA ([1]; in vivo): 25%; Herbicidal action in CHEAL (in %) (Chenopodium album; [13]): 94%; Herbicidal action in SETVI (in %) (Setaria viridis [2]; [13]): 96% |
| COc1cc(OC)nc(NC(=O)NS(=O)(=O)c2cc(NC=O)ccc2C(=O)N(C)C)n1 [Herbicide H2, foramsulfuron, reference compound] |  |  |  |  |  |  |  |  |  |  |  | 35% | % damage in ZEAMA ([3]; in vivo): 32%; Herbicidal action as % damage in AMARE (Amaranthus retroflexus; [14]): 90%; Herbicidal action as % damage in SETVI (Setaria viridis [4]; [14]): 93% |
